Reference: patent US20230055705A1, “SUBSTITUTED THIOPHENE CARBOXAMIDES AND DERIVATIVES THEREOF” (Bayer Aktiengesellschaft, priority 2019, published 2023)

Test system: Pseudomonas syringae pv. tomato
Assay: Pseudomonas syringae pv. tomato in vitro cell test
Format: cell-based
Conditions: 20 ppm of active ingredient, 24 h incubation, read-out: efficacy (inhibition of bacteria growth)
Method: Culture medium: LB broth medium (Luria Broth Miller) Sigma
Inoculum: bacteria suspension
Compounds were solubilized in DMSO and the solution used to prepare the required range of concentrations. The final concentration of DMSO used in the assay was 1%.
(§1) Inoculum was prepared from a pre-culture of bacteria grown in liquid medium and diluted to the desired optical density (OD).
(§2) Compounds were evaluated for their ability to inhibit bacteria growth in liquid culture assay. The compounds were added in the desired concentrations to culture medium containing the bacteria suspension. After 24 h of incubation, the efficacy of compounds was determined by spectrometric measurement of bacteria growth. Inhibition was determined by comparing the absorbance values in wells containing the compounds with the absorbance in control wells without active ingredients.

Compound	inhibition at 20 ppm [%]
COC(=O)CC[C@H](NC(=O)c1sc(Cl)c(Cl)c1Cl)C(=O)OC [I.139]	≤ 30

Test system: Alternaria alternata
Assay: Alternaria alternata in vitro cell test
Format: cell-based
Conditions: 120 h, 20 ppm of active ingredient, 5 days incubation, read-out: efficacy (inhibition of fungal growth)
Method: (§3) • Solvent: DMSO • Culture medium: 14.6 g anhydrous D-glucose (VWR), 7.1 g Mycological Peptone (Oxoid), 1.4 g granulated Yeast Extract (Merck), QSP 1 liter • Inoculum: spores suspension
(§4) Fungicides were solubilized in DMSO and the solution used to prepare the required range of concentrations. The final concentration of DMSO used in the assay was ≤[…]1%.
A spore suspension of A. alternata was prepared and diluted to the desired spore density.
(§5) Fungicides were evaluated for their ability to inhibit spore germination and mycelium growth in liquid culture assay. The compounds were added in the desired concentration to the culture medium with spores. After 5 days incubation, fungi-toxicity of compounds was determined by spectrometric measurement of mycelium growth. Inhibition of fungal growth was determined by comparing the absorbance values in wells containing the fungicides with the absorbance in control wells without fungicides.

Compound	inhibition at 20 ppm [%]
COC(=O)CC[C@H](NC(=O)c1sc(Cl)c(Cl)c1Cl)C(=O)OC [I.139]	≤ 30

Test system: Xanthomonas campestris pv. campestris
Assay: In vivo preventive test on Xanthomonas campestris pv. campestris (black rot on cabbage)
Conditions: 31 ppm of active ingredient, evaluated 8 or 10 days after inoculation, read-out: efficacy
How it was run: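 Young cabbage plants sprayed with compound in acetone/DMSO/Tween diluted in water; solvent-only controls. Leaves sprayed with bacterial suspension 72 h later, then held 8 or 10 days at 27° C and 95% relative humidity. Efficacy scored 8 or 10 days post-inoculation, 0% matching controls, 100% meaning no disease.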

Compound	pest or weed control at 31 ppm [%]
COC(=O)[C@H](C)NC(=O)c1sc(Cl)c(Cl)c1Cl [CMP2]	< 40
CCOC(=O)[C@H](C)NC(=O)c1sc(Cl)c(Cl)c1Cl [CMP3]	0

Test system: Colletotrichum lindemuthianum
Assay: Colletotrichum lindemuthianum in vitro cell test
Format: cell-based
Conditions: 144 h, 20 ppm of active ingredient, 6 days incubation, read-out: efficacy (inhibition of fungal growth)
Method: as §3, §4
A spore suspension of C. lindemuthianum was prepared and diluted to the desired spore density.
as §5, with “inhibit spores” for “inhibit spore”, “After 6” for “After 5”

Compound	inhibition at 20 ppm [%]
COC(=O)CC[C@H](NC(=O)c1sc(Cl)c(Cl)c1Cl)C(=O)OC [I.139]	≤ 30

Test system: Colletotrichum lindemuthianum
Assay: In vivo preventive test on Colletotrichum lindemuthianum (Antrachnose on bean)
Conditions: 144 h, 31 ppm of active ingredient, inoculation 72 h after spraying, evaluated 6 days after inoculation, read-out: efficacy
How it was run: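 Young bean plants sprayed preventively with compound in acetone/DMSO/Tween diluted in water, then spore-inoculated 72 h later. Incubation 24 h at 20° C./100% RH, then 5 days at 20° C./90% RH; scored 6 days post-inoculation as % efficacy (0% = solvent-treated control, 100% = no disease).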

Compound	pest or weed control at 31 ppm [%]
COC(=O)CC[C@H](NC(=O)c1sc(Cl)c(Cl)c1Cl)C(=O)OC [I.139]	70 to 79

Test system: young plants of cabbage
Assay: Phytotoxicity observed in the in vivo preventive test on Peronospora parasitica
Conditions: not given
Method: The tested active ingredients were prepared by homogenization in a mixture of acetone/Dimethyl sulfoxide/Tween®, and then diluted with water to obtain the desired active material concentration. The young plants of cabbage were treated by spraying the active ingredient prepared as described above. Control plants were treated only with an aqueous solution of acetone/Dimethyl sulfoxide/Tween®.
After 72 hours, the plants were contaminated by spraying the leaves with an aqueous suspension of Peronospora parasitica spores. The contaminated cabbage plants were incubated for 5 days at 20° C. and at 100% relative humidity.
Compounds CMP2 and CMP3 were tested in an in vivo preventive test on Peronospora parasitica (Crucifer downy mildew) in the same conditions as described in Example G.

Compound	phytotoxicity (in place of Efficacy (%) at 500 ppm)
COC(=O)[C@H](C)NC(=O)c1sc(Cl)c(Cl)c1Cl [CMP2]	* (No efficacy measured due to over 80% phytotoxicity observed)
CCOC(=O)[C@H](C)NC(=O)c1sc(Cl)c(Cl)c1Cl [CMP3]	* (No efficacy measured due to over 80% phytotoxicity observed)

Same assay, conditions: 500 ppm

Compound	phytotoxicity
COC(=O)[C@H](C)NC(=O)c1sc(Cl)c(Cl)c1Cl [CMP2]	over 80%
CCOC(=O)[C@H](C)NC(=O)c1sc(Cl)c(Cl)c1Cl [CMP3]	over 80%

Test system: Pseudomonas syringae pv. tomato
Assay: In vivo preventive test on Pseudomonas syringae pv. tomato (bacterial speck on tomato)
Conditions: 31 ppm of active ingredient, evaluated 5 or 6 days after inoculation, read-out: efficacy
How it was run: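 Young tomato plants sprayed with compound in acetone/DMSO/Tween diluted in water; solvent-only controls. Inoculated 72 h later by spraying leaves with bacterial suspension; 4 days saturated atmosphere then 1–2 days at 70–80% RH, 22 °C day/20 °C night. Efficacy scored 5–6 days post-inoculation, 0% = control, 100% = no disease.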

Compound	pest or weed control at 31 ppm [%]
COC(=O)CC[C@H](NC(=O)c1sc(Cl)c(Cl)c1Cl)C(=O)OC [I.139]	80 to 89

Test system: Peronospora parasitica
Assay: In vivo preventive test on Peronospora parasitica (Crucifer downy mildew)
Conditions: Hyaloperonospora parasitica, in Brassica oleracea, 120 h, 31 ppm of active ingredient, cabbage, evaluated 5 days after inoculation, read-out: efficacy
How it was run: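 Young cabbage plants were sprayed with compound in acetone/DMSO/Tween diluted with water, then inoculated 72 h later with a Peronospora parasitica spore suspension. Plants were kept 5 days at 20 °C and 100% RH. Efficacy was scored with 0% equal to solvent-treated controls and 100% meaning no disease.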

Compound	pest or weed control at 31 ppm [%]
COC(=O)CC[C@H](NC(=O)c1sc(Cl)c(Cl)c1Cl)C(=O)OC [I.139]	90 to 100

Same assay, conditions: Hyaloperonospora parasitica, in Brassica oleracea, 120 h, 125 ppm of active ingredient, cabbage, evaluated 5 days after inoculation, read-out: efficacy

Compound	pest or weed control at 125 ppm [%]
COC(=O)CC[C@H](NC(=O)c1sc(Cl)c(Cl)c1Cl)C(=O)OC [I.139]	90 to 100

Test system: salicylate responsive promoter sequence of the PR1 (pathogenesis-related protein I) gene (AT2G14610)
Assay: Induction of defense gene expression in Arabidopsis thaliana (PR1 promoter-GFP reporter plants)
Format: in vivo
Conditions: Arabidopsis thaliana, 72 h; 75 ppm of compound; 3rd day after spraying; mock treated leaves set as 1.00; read-out: relative fluorescence value
How it was run: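 Transgenic A. thaliana carrying GFP under the salicylate-responsive PR1 promoter, grown five days, then sprayed with compounds. Whole-plant fluorescence imaged and quantified on day 3 post-spray, expressed relative to mock-treated leaf background set at 1.00.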

Compound	fold induction at 75 ppm
COC(=O)CC[C@H](NC(=O)c1sc(Cl)c(Cl)c1Cl)C(=O)OC [I.139]	> 2

Same assay, conditions: Arabidopsis thaliana, 72 h; 300 ppm; 3rd day after spraying; mock treated leaves set as 1.00; read-out: relative fluorescence value

Compound	fold induction at 300 ppm
COC(=O)CC[C@H](NC(=O)c1sc(Cl)c(Cl)c1Cl)C(=O)OC [I.139]	> 2

Test system: Xanthomonas campestris pv. campestris
Assay: Xanthomonas campestris pv. campestris in vitro cell test
Format: cell-based
Conditions: 20 ppm of active ingredient, 24 h incubation, read-out: efficacy (inhibition of bacteria growth)
Method: • Solvent: DMSO • Culture medium: LB broth medium (Luria Broth Miller) Sigma • Inoculum: bacteria suspension
Compounds were solubilized in DMSO and the solution used to prepare the required range of concentrations. The final concentration of DMSO used in the assay was ≤1%.
as §1, §2

Compound	inhibition at 20 ppm [%]
COC(=O)CC[C@H](NC(=O)c1sc(Cl)c(Cl)c1Cl)C(=O)OC [I.139]	≤ 30

Test system: young plants of cabbage
Assay: Phytotoxicity observed in the in vivo preventive test on Xanthomonas campestris pv. campestris
Conditions: not given
Method: The young plants of cabbage were treated by spraying the active ingredient prepared as described above. Control plants were treated only with an aqueous solution of acetone/Dimethyl sulfoxide/Tween®.
After 72 hours, the plants were contaminated by spraying the leaves with an aqueous bacteria suspension of Xanthomonas campestris pv. campestris. The contaminated cabbage plants were incubated for 8 or 10 days at 27° C. at 95% relative humidity.
Compounds CMP1, CMP2, CMP3 and CMP4 were tested in an in vivo preventive test on Xanthomonas campestris pv. campestris (black rot on cabbage) in the same conditions as described in Example H.

Compound	phytotoxicity (in place of Efficacy (%) at 125 ppm)
COC(=O)[C@H](C)NC(=O)c1sc(Cl)c(Cl)c1Cl [CMP2]	* (No efficacy measured due to over 80% phytotoxicity observed)
CCOC(=O)[C@H](C)NC(=O)c1sc(Cl)c(Cl)c1Cl [CMP3]	* (No efficacy measured due to over 80% phytotoxicity observed)

Same assay, conditions: 125 ppm

Compound	phytotoxicity
COC(=O)[C@H](C)NC(=O)c1sc(Cl)c(Cl)c1Cl [CMP2]	over 80%
CCOC(=O)[C@H](C)NC(=O)c1sc(Cl)c(Cl)c1Cl [CMP3]	over 80%

Test system: not listed separately
Assay: LogP by HPLC on reversed phase columns (EEC directive 79/831 Annex V.A8)
Format: physicochemical
Conditions: reversed phase HPLC columns, method [a]: LC-UV, acidic range, 0.1% formic acid in water and acetonitrile as eluent (linear gradient 10% to 95% acetonitrile)
How it was run: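 Reversed-phase HPLC per EEC directive 79/831 Annex V.A8. Calibrated with straight-chain alkan-2-ones (C3–C16) of known LogP, LogP from retention times by linear interpolation between successive alkanones. Lambda-max taken from UV spectra (200–400 nm) at chromatographic peak maxima.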

Compound	chromatographic logP
COC(=O)CC[C@H](NC(=O)c1sc(Cl)c(Cl)c1Cl)C(=O)OC [I.139]	3.36

Test system: Uromyces appendiculatus
Assay: In vivo preventive test on Uromyces appendiculatus (bean rust)
Conditions: 240 h, 125 ppm of active ingredient, evaluated 10 days after inoculation, read-out: efficacy
How it was run: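 Young bean plants sprayed with compound in acetone/DMSO/Tween diluted in water, inoculated 72 h later with U. appendiculatus spore suspension. Held 24 h at 20 °C, 100% RH, then 9 days at 20 °C, 70-80% RH. Efficacy scored 10 days post-inoculation versus solvent-treated controls (0% = control, 100% = no disease).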

Compound	pest or weed control at 125 ppm [%]
COC(=O)CC[C@H](NC(=O)c1sc(Cl)c(Cl)c1Cl)C(=O)OC [I.139]	90 to 100
